pEC50, pKi: −log10 of the molar value.
Assays:
[1] = target: T1, EGFR T790M L858R (Homo sapiens, UniProt P00533, L858R/T790M); assay: EGFR T790M L858R biochemical assay (Caliper mobility shift); settings: 5 μM ATP; apparent Ki (Morrison fit) converted by Cheng-Prusoff, Km of ATP 1.3 μM
T1 construct: purchased Life Technologies PV4879
Outline: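 Caliper mobility-shift read-out, electrophoretic separation of substrate from product, after a 30-minute kinase reaction at 22 °C. EDTA at 80 mM terminates each reaction.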

[2] = target: T2, phosphor-EGFR in H1975(L585R/T790M) mutant EGFR expressing cells (Homo sapiens, UniProt P00533, L858R/T790M); assay: H1975 pEGFR MSD cellular assay; type: cell-based; settings: NCI-H1975 cells, serum starved, 1 hour compound incubation, pEGFR Tyr1068 MSD; read-out: HI975 pEGFR EC50
T2 construct: host or cells: NCI-H1975
T2 sequence (P00533 25-1210 T790M/L858R): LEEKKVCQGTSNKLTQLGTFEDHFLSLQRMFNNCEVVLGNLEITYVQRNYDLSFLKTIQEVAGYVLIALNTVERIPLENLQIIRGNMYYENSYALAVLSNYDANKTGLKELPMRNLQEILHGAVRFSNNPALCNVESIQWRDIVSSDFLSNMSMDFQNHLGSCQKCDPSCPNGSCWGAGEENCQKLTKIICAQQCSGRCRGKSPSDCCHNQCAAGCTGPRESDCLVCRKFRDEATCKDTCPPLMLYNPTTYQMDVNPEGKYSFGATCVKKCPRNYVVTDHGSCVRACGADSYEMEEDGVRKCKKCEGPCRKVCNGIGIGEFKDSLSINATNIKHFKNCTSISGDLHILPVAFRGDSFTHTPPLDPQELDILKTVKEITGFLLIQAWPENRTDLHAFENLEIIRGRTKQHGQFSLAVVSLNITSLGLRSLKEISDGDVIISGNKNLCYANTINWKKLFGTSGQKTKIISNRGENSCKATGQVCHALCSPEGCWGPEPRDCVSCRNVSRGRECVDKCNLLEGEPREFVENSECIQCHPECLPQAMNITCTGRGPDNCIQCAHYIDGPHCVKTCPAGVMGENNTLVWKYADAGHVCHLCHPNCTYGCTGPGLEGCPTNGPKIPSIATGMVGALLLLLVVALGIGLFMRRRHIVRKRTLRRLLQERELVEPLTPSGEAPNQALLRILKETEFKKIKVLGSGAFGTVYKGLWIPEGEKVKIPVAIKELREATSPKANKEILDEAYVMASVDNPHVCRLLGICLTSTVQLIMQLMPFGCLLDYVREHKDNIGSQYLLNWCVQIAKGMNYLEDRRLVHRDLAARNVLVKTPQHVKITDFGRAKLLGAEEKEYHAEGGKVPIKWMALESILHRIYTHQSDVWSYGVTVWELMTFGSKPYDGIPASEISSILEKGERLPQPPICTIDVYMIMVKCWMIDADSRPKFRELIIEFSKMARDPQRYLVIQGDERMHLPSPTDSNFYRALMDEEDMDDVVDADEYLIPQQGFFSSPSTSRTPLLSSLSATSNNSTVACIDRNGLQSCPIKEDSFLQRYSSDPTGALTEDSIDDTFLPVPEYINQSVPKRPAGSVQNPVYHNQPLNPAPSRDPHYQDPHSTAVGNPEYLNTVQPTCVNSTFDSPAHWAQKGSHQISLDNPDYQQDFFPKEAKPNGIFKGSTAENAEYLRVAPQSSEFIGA
Outline: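 Phospho-EGFR read by MSD electrochemiluminescence: capture with anti-pEGFR antibody (overnight, 4° C), detection with SULFO-TAG anti-total EGFR (1 hour, room temperature). Before lysis, H1975 cells starved of serum overnight got compound for 1 hour at 37° C, 0.5% DMSO final. EC50 via four-parameter logistic regression of percent inhibition.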

[3] = system: H1975 (EGFR T790M/L858R) cell proliferation; assay: H1975 proliferation assay (Cell Titer-Glo); type: cell-based; settings: Homo sapiens, NCI-H1975, 72 h, NCI-H1975 cells, 72 hour incubation, read-out: H1975 antiproliferative EC50
Description: H1975 Proliferation Assays
All cell culture reagents were purchased from Invitrogen/Gibco. Cells are cultured at 37° C. at 5% CO2 and split as recommended by ATCC.

[4] = target: T3, EGFR del746-750 T790M (Homo sapiens, UniProt P00533, DEL746-750/T790M); assay: EGFR del746-750 T790M biochemical assay (Caliper mobility shift); settings: 5 μM ATP; apparent Ki (Morrison fit) converted by Cheng-Prusoff, Km of ATP 2.1 μM; read-out: EGFR(T790M/d746-750) Ki
T3 construct: purchased Carna Biosciences 08-528
T3 sequence (P00533 with tags, fused parts or gaps DEL746-750/T790M limits assumed): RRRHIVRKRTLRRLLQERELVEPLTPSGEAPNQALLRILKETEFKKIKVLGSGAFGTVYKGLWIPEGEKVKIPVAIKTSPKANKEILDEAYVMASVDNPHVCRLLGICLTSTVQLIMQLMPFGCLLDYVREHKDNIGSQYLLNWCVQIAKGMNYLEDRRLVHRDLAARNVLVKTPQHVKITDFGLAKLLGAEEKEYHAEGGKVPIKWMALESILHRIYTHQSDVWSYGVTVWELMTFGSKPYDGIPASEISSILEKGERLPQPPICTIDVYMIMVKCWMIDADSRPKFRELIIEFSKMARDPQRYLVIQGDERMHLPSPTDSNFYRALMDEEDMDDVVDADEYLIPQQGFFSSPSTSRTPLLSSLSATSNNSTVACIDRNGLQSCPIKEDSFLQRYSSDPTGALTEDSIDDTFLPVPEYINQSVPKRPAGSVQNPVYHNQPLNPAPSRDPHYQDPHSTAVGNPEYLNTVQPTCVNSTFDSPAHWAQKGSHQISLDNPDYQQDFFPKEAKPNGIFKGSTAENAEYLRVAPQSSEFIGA
Description: The exemplified compounds described herein were tested according to the assay below. The enzyme data reported in Tables 4-5 is generally a representative of multiple experiments.
Reactions proceed for 30 minutes at room temperature (22° C.) and are terminated with 80 mM 2,2′,2″,2″′-(ethane-1,2-diyldinitrilo)tetraacetic acid (EDTA). Product is detected using the Caliper mobility shift detection method where product and substrate are electrophoretically separated and measured.

T1 sequence (P00533 25-1210 T790M/L858R): as the sequence (P00533 25-1210 T790M/L858R) above

Row | pKi [1] | pEC50 [2] | pEC50 [3] | pKi [4] | SMILES
1 | 8.19 | 6.58 | 5.83 | 8.15 | CCC(C)n1nc(N2CC[C@@H](O)C2)c2cnc(Nc3ccnc(N4CCC(CC#N)(OC)CC4)n3)cc21 (mixture of isomers) [Example 81, 2-(1-(4-(1-sec-Butyl-3-((R)-3-hydroxypyrrolidin-1-yl)-1H-pyrazolo[4,3-c]pyridin-6-ylamino)pyrimidin-2-yl)-4-methoxypiperidin-4-yl)acetonitrile]
2 | 9.00 | 7.40 | 6.59 | 8.74 | CCC(C)n1nc(N2CCNC2=O)c2cnc(Nc3ccnc(N4CC[C@H](OC)[C@H](F)C4)n3)cc21 (mixture of isomers) [Example 98, 1-{1-(sec-Butyl)-6-[2-((3R,4S)-3-fluoro-4-methoxypiperidin-1-yl)pyrimidin-4-ylamino]-1H-pyrazolo[4,3-c]pyridin-3-yl}imidazolidin-2-one]
3 | 8.48 | 5.40 | < 5.00 | 7.92 | CCC(C)n1nc(N2C[C@@H](CO)NC2=O)c2cnc(Nc3ccnc(N4CCC(C)(O)CC4)n3)cc21 (mixture of isomers) [Example 176, (4S)-1-(1-sec-Butyl-6-(2-(4-hydroxy-4-methylpiperidin-1-yl)pyrimidin-4-ylamino)-1H-pyrazolo[4,3-c]pyridin-3-yl)-4-(hydroxymethyl)imidazolidin-2-one]
4 | 8.92 | 7.44 | 6.41 | 8.52 | CC(C)n1nc(N2CC3(COC3)C2)c2cnc(Nc3ccnc(N4CCC(O)C(F)C4)n3)cc21 (racemic) [Example 21, (±)-cis-3-Fluoro-1-{4-[1-isopropyl-3-(2-oxa-6-azaspiro[3.3]hept-6-yl)-1H-pyrazolo[4,3-c]pyridin-6-ylamino]-pyrimidin-2-yl}piperidin-4-ol]
5 | 8.27 | 6.31 | < 5.52 | 7.69 | CC(C)n1nc(N2CCNC2=O)c2cnc(Nc3ccnc(N4CCC(O)C(F)C4)n3)cc21 (racemic) [Example 22, (±)-1-(6-((2-(cis-3-Fluoro-4-hydroxypiperidin-1-yl)pyrimidin-4-yl)amino)-1-isopropyl-1H-pyrazolo[4,3-c]pyridin-3-yl)imidazolidin-2-one]
6 | 8.96 | 7.64 | 6.61 | 8.41 | COC1CCN(c2nccc(Nc3cc4c(cn3)c(N3CC5(COC5)C3)nn4C(C)C)n2)CC1F (racemic) [Example 23, (±)-2-(cis-3-Fluoro-4-methoxypiperidin-1-yl)pyrimidin-4-yl]-[1-isopropyl-3-(2-oxa-6-azaspiro[3.3]hept-6-yl)-1H-pyrazolo[4,3-c]pyridin-6-yl]amine]
7 | 8.44 | 6.65 | 6.15 | 7.79 | CC(C)n1nc(N2CC3(COC3)C2)c2cnc(Nc3ccnc(N4CC[C@](C)(O)[C@H](F)C4)n3)cc21 (racemic) [Example 64, (3RS,4SR)-3-Fluoro-1-{4-[1-isopropyl-3-(2-oxa-6-azaspiro[3,3]hept-6-yl)-1H-pyrazolo[4,3-c]pyridin-6-ylamino]pyrimidin-2-yl}-4-methylpiperidin-4-ol]
8 | 8.39 | 5.88 | 5.11 | 7.99 | CC(C)n1nc(N2CCO[C@@H](CO)C2)c2cnc(Nc3ccnc(N4CCC(O)C(F)C4)n3)cc21 (mixture of isomers) [Example 75, cis-3-Fluoro-1-(4-(3-((R)-2-(hydroxymethyl)morpholino)-1-isopropyl-1H-pyrazolo[4,3-c]pyridin-6-ylamino)pyrimidin-2-yl)piperidin-4-ol]
9 | 8.39 | 5.36 | < 5.00 | 8.03 | CCC(C)n1nc(N2CC(O)(CO)C2)c2cnc(Nc3ccnc(N4CCC(C)(O)CC4)n3)cc21 (racemic) [Example 80, (±)-1-(4-(1-sec-Butyl-3-(3-hydroxy-3-(hydroxymethyl)azetidin-1-yl)-1H-pyrazolo[4,3-c]pyridin-6-ylamino)pyrimidin-2-yl)-4-methylpiperidin-4-ol]
10 |  | 7.55 | 6.22 | 9.30 | CC(C)n1nc(N2CCC(C(N)=O)C2)c2cnc(Nc3ccnc(-c4cnn(S(=O)(=O)C5CC5)c4)n3)cc21 (stereo not shown) [Example 60, 1-(6-(2-(1-(cyclopropylsulfonyl)-1H-pyrazol-4-yl)pyrimidin-4-ylamino)-1-isopropyl-1H-pyrazolo[4,3-c]pyridin-3-yl)pyrrolidine-3-carboxamide]
11 | 7.73 |  | < 5.00 | 7.53 | CC(C)n1nc(NC2CNC(=O)C2)c2cnc(Nc3ccnc(N4CCC(C)(O)CC4)n3)cc21 (stereo not shown) [Example 77, 4-(6-(2-(4-Hydroxy-4-methylpiperidin-1-yl)pyrimidin-4-ylamino)-1-isopropyl-1H-pyrazolo[4,3-c]pyridin-3-ylamino)pyrrolidin-2-one]
12 | 7.67 |  |  | 7.12 | CC(C)n1nc(N2CCN(C(=O)C(C)(C)O)CC2)c2cnc(Nc3ccnc(N4CCC(C)(O)CC4)n3)cc21 [Example 78, 2-Hydroxy-1-(4-(6-(2-(4-hydroxy-4-methylpiperidin-1-yl)pyrimidin-4-ylamino)-1-isopropyl-1H-pyrazolo[4,3-c]pyridin-3-yl)piperazin-1-yl)-2-methylpropan-1-one]
13 | 7.69 |  |  | 7.69 | CC1CCC(C)N1c1nn(C(C)C)c2cc(Nc3ccnc(-c4cnn(S(=O)(=O)C5CC5)c4)n3)ncc12 (stereo not shown) [Example 91, N-(2-(1-(Cyclopropylsulfonyl)-1H-pyrazol-4-yl)pyrimidin-4-yl)-3-(2,5-dimethylpyrrolidin-1-yl)-1-isopropyl-1H-pyrazolo[4,3-c]pyridin-6-amine]
14 | 6.96 |  |  | 7.18 | CC(C)n1nc(C#N)c2cnc(Nc3ccnc(-c4cnn(S(=O)(=O)C5CC5)c4)n3)cc21 [Example 93, 6-(2-(1-(Cyclopropylsulfonyl)-1H-pyrazol-4-yl)pyrimidin-4-ylamino)-1-isopropyl-1H-pyrazolo[4,3-c]pyridine-3-carbonitrile]
15 | 6.06 |  |  | < 5.54 | CC(C)n1nc(C2(C)CCCO2)c2cnc(Nc3ccnc(N4CCC(C)(O)CC4)n3)cc21 (stereo not shown) [Example 94, 1-(4-(1-Isopropyl-3-(2-methyltetrahydrofuran-2-yl)-1H-pyrazolo[4,3-c]pyridin-6-ylamino)pyrimidin-2-yl)-4-methylpiperidin-4-ol]
16 | 7.82 |  |  | 7.23 | CC(C)n1nc(C2=NC(C)(C)NC2=O)c2cnc(Nc3ccnc(N4CCC(C)(O)CC4)n3)cc21 [Example 95, 4-(6-(2-(4-Hydroxy-4-methylpiperidin-1-yl)pyrimidin-4-ylamino)-1-isopropyl-1H-pyrazolo[4,3-c]pyridin-3-yl)-2,2-dimethyl-1,2-dihydroimidazol-5-one]
17 | 7.94 |  |  | 7.47 | CCC(=O)N1CCN(c2nn(C(C)C)c3cc(Nc4ccnc(N5CCC(C)(O)CC5)n4)ncc23)CC1 [Example 134, 1-(4-(6-(2-(4-Hydroxy-4-methylpiperidin-1-yl)pyrimidin-4-ylamino)-1-isopropyl-1H-pyrazolo[4,3-c]pyridin-3-yl)piperazin-1-yl)propan-1-one]
18 | 7.99 |  |  | 7.33 | CC(C)n1nc(N2CCN(C(=O)CO)CC2)c2cnc(Nc3ccnc(N4CCC(C)(O)CC4)n3)cc21 [Example 135, 2-Hydroxy-1-(4-(6-(2-(4-hydroxy-4-methylpiperidin-1-yl)pyrimidin-4-ylamino)-1-isopropyl-1H-pyrazolo[4,3-c]pyridin-3-yl)piperazin-1-yl)ethanone]
19 | 7.97 |  |  | 7.40 | CC(O)C(=O)N1CCN(c2nn(C(C)C)c3cc(Nc4ccnc(N5CCC(C)(O)CC5)n4)ncc23)CC1 (stereo not shown) [Example 136, 2-Hydroxy-1-(4-(6-(2-(4-hydroxy-4-methylpiperidin-1-yl)pyrimidin-4-ylamino)-1-isopropyl-1H-pyrazolo[4,3-c]pyridin-3-yl)piperazin-1-yl)propan-1-one]
20 | 6.52 |  | < 5.00 | 6.70 | CC1COCC(C)N1c1nn(C(C)C)c2cc(Nc3ccnc(-c4cnn(S(=O)(=O)C5CC5)c4)n3)ncc12 (stereo not shown) [Example 180, N-(2-(1-(Cyclopropylsulfonyl)-1H-pyrazol-4-yl)pyrimidin-4-yl)-3-(3,5-dimethylmorpholino)-1-isopropyl-1H-pyrazolo[4,3-c]pyridin-6-amine]
21 | 8.24 |  | < 5.00 | 7.85 | CCC(C)n1nc(N2CC[C@H](O)C2=O)c2cnc(Nc3ccnc(N4CC[C@@H](O)[C@@H](F)C4)n3)cc21 (stereo partly drawn) [Example 201, (3S)-1-(1-(sec-Butyl)-6-((2-((3S,4R)-3-fluoro-4-hydroxypiperidin-1-yl)pyrimidin-4-yl)amino)-1H-pyrazolo[4,3-c]pyridin-3-yl)-3-hydroxypyrrolidin-2-one]

From patent US9951064B2, “Azaindazole compounds as inhibitors of T790M containing EGFR mutants” (Genentech, Inc., priority 2013, dated 2018)
